Measurements: ChEMBL document CHEMBL2429771, “Drug discovery for neglected diseases: molecular target-based and phenotypic approaches” (J Med Chem, 2013)

What was measured:
[1] = system: Trypanosoma brucei; assay: Inhibition of blood stream form of Trypanosoma brucei overexpressing trypanothione synthase after 72 hrs; format: functional, organism-based
[2] = system: Trypanosoma brucei; assay: Inhibition of wild type blood stream form of Trypanosoma brucei expressing trypanothione synthase after 72 hrs; format: functional, organism-based
[3] = system: Trypanosoma brucei; assay: Inhibition of blood stream form of trypanothione synthase single knockout Trypanosoma brucei after 72 hrs; format: functional, organism-based
[4] = Inhibition of Trypanosoma brucei trypanothione synthase
[5] = Inhibition of Leishmania mexicana CRK3/CYC6
[6] = biological target: CDK2/Cyclin A2 (Homo sapiens, UniProt P24941); assay: Inhibition of human CDK2/Cyclin A; format: protein-complex assay
[7] = Inhibition of Trypanosoma brucei PTR1 by spectrophotometry; conditions: read-out: Ki(app)

IC50 [5]	IC50 [6]	Ki [7]	SMILES	also measured
			CN(C)CCCNC(=O)Cn1nc(-c2cccc(F)c2)c2ccccc21	EC50 [1]: 23 µM; EC50 [2]: 7 µM; EC50 [3]: 1.2 µM; IC50 [4]: 0.045 µM
0.34 µM	> 100 µM		O=C(Nc1cc(-c2ccc(Cl)cc2)n[nH]1)C1CCCCC1	
< 0.005 µM	> 100 µM		Cc1cccc(-c2ccc3nc(NC(=O)CCC4CCCC4)nn3c2)c1	
0.04 µM	> 100 µM		COc1cccc(NC(=O)NC2=CC(=O)CC(C)(C)C2)c1	
		11 µM	Nc1nc2ccc(Cl)cc2[nH]1	
		228 µM	Nc1nc2ccccc2[nH]1	
